Values of other authors in US8227637B2, “Stable, water-soluble near infrared dyes” (Epolin, Inc., priority 2008, dated 2012).

Conditions: SbF6 salt of U.S. Pat. No. 3,709,830, statement in background

water solubility: not water-soluble
SMILES: OCCN(CCO)c1ccc([N+](=C2C=CC(=[N+](c3ccc(N(CCO)CCO)cc3)c3ccc(N(CCO)CCO)cc3)C=C2)c2ccc(N(CCO)CCO)cc2)cc1.[F][Sb-]([F])([F])([F])([F])[F].[F][Sb-]([F])([F])([F])([F])[F] [N,N′,N″,N′″-tetrakis(4-[di(2-hydroxyethyl)amino]-phenyl)-p-benzoquinonebis(imoniumhexafluoro-antimonate)]
